{"source": "patent US20250042897A1", "about": "“HETEROCYCLIC COMPOUNDS AS TRIGGERING RECEPTOR EXPRESSED ON MYELOID CELLS 2 AGONISTS AND METHODS OF USE” (Vigil Neuroscience, Inc., priority 2021, published 2025)", "data": [{"biological_target": "T1, human TREM2 (Homo sapiens, UniProt Q9NZC2)", "T1 construct": "expressed in transfected cells; host or cells: HEK293T", "T1 sequence (Q9NZC2 19-230)": "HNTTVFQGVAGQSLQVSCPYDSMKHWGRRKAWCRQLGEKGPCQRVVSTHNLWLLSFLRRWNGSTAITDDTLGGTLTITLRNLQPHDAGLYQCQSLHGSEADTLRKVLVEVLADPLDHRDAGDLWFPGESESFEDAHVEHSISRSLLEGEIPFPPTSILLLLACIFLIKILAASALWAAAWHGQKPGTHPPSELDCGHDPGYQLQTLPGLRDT", "T1 sequence (O43914 22-113 partner)": "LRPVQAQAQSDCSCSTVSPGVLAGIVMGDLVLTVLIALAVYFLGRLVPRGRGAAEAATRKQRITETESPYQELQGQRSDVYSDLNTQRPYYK", "test": "hTREM2 agonist potency by cellular Syk phosphorylation (AlphaLisa) in HEK293T-hTREM2 cells", "assay_type": "cell-based", "settings": "Table D-2; HEK293 cells expressing human TREM2 and DAP12; pSyk AlphaLisa; 45 minutes at room temperature", "procedure": "In Vitro Measurement of Triggering Receptor Expressed on Myeloid Cells 2 Activity Using Cellular Phosphorylation of Spleen Tyrosine Kinase (“Syk”) Assays\nMeasurement of TREM2 agonist potency was done using a HEK cell line expressing human TREM2 and DAP12 (HEK293T-hTREM2 cells). Binding of small molecules to, and activation of, TREM2 increases the phosphorylation of Syk. The resultant levels of Syk phosphorylation are measured using a commercial AlphaLisa reagent kit. To perform the assay, HEK-hTREM2 cells were plated at 14,000 cells per well in a 384 well plate, in 25 μL of complete growth media and incubated at 37° C., 5% CO2 for 20-24 hours.\nPrior to the assay, test compounds were diluted in the 384 well plates in assay buffer and allowed to equilibrate for 30 minutes. Growth media was removed from cell plates by inversion on blotting paper, and 25 μL of test articles in assay buffer was added to cells. Cells were incubated for 45 minutes at room temperature. After 45 minutes, assay buffer was removed and 10 μL of lysis buffer was added. Plates were shaken for 20 minutes at 350 RPM at room temperature. After complete lysis, AlphaLisa reagents were added to the lysate, and fluorescence intensity was measured using a Perkin Elmer Envision plate reader. Intensities were used to generate a standard curve, and % activation was calculated. Curve fitting was performed using Prism v9 software, log (agonist) vs response-variable slope (four parameters), and EC50s were calculated from the curve fit.\nThe results presented in Table D have been generated with the in vitro assay described above. This assay may be used to test any of the compounds described herein to assess and characterize a compound's ability to act as an agonist of TREM2.", "units": {"EC50": "µM"}, "values": [{"smiles": "Cc1nc2nc([C@H]3CCO[C@@H](c4cnn(C5CC5)c4)C3)cc(-c3ccc(F)cc3F)c2c(=O)n1C", "note": "(single isomer, unassigned) [I-40]", "EC50": "≤ 0.05"}, {"smiles": "Cc1nc2nc([C@@H]3CCO[C@H](c4cnn(C5CC5)c4)C3)cc(-c3ccc(F)cc3F)c2c(=O)n1C", "note": "(single isomer, unassigned) [I-42]", "EC50": "0.5 to 3"}, {"smiles": "Cn1ncc2c(-c3ccc(Cl)cc3F)nc(N3C[C@@H](C4CC4)O[C@@H](c4cnn(C5CC5)c4)C3)nc2c1=O", "note": "(single isomer, unassigned) [I-183]", "EC50": "≤ 0.05"}, {"smiles": "Cn1ncc2c(-c3ccc(Cl)cc3F)nc(N3C[C@@H](c4cnn(C5CC5)c4)O[C@@H](C4CC4)C3)nc2c1=O", "note": "(single isomer, unassigned) [I-184]", "EC50": "≤ 0.05"}, {"smiles": "Cn1ncc2c(-c3ccc(Cl)cc3F)nc(N3CCOC(c4cnn(C5CC5)c4)C3)cc2c1=O", "note": "(centres unmarked) [I-45, 5-(4-chloro-2-fluorophenyl)-7-(2-(1-cyclopropyl-1H-pyrazol-4-yl)morpholino)-2-methylpyrido[3,4-d]pyridazin-1 (2H)-one]", "EC50": "0.05 to 0.5"}, {"smiles": "Cn1ncc2c(-c3ccc(Cl)cc3F)nc([C@H]3CCO[C@@H](c4cnn(C5CC5)c4)C3)cc2c1=O", "note": "[I-48, 5-(4-chloro-2-fluoro-phenyl)-7-[(2R,4S)-2-(1-cyclopropylpyrazol-4-yl)tetrahydropyran-4-yl]-2-methyl-pyrido[3,4-d]pyridazin-1-one]", "EC50": "≤ 0.05"}, {"smiles": "Cn1ncc2c(-c3ccc(C(F)(F)F)cc3F)nc([C@H]3CCO[C@@H](c4cnn(C5CC5)c4)C3)cc2c1=O", "note": "[I-53, 7-[(2R, 4S)-2-(1-cyclopropylpyrazol-4-yl)tetrahydropyran-4-yl]-5-[2-fluoro-4-(trifluoroomethyl)phenyl]-2-methyl-pyrido[3,4-d]pyridazin-1-one]", "EC50": "0.05 to 0.5"}, {"smiles": "C[C@@H]1CN(c2cc3c(=O)n(C)ncc3c(-c3ccc(F)cc3F)n2)C[C@H](c2cnn(C3CC3)c2)O1", "note": "[I-58, 7-[(2S,6R)-2-(1-cyclopropylpyrazol-4-yl)-6-methyl-morpholin-4-yl]-5-(2,4-difluorophenyl)-2-methyl-pyrido[3,4-d]pyridazin-1-one]", "EC50": "≤ 0.05"}, {"smiles": "Cn1ncc2c(-c3ccc(F)cc3F)nc(C3CCO[C@@H](c4cnn(C5CC5)c4)C3)cc2c1=O", "note": "(stereo partly drawn) [I-63, 7-[(2R)-2-(1-cyclopropylpyrazol-4-yl)tetrahydropyran-4-yl]-5-(2,4-difluorophenyl)-2-methyl-pyrido[3,4-d]pyridazin-1-one]", "EC50": "0.05 to 0.5"}, {"smiles": "Cc1cc2c(-c3ccc(C(F)(F)F)cc3F)nc(N3C[C@@H](C)O[C@@H](c4cnn(C5CC5)c4)C3)cc2c(=O)n1C", "note": "[I-79, 7-((2S,6R)-2-(1-cyclopropyl-1H-pyrazol-4-yl)-6-methylmorpholino)-5-(2-fluoro-4-(trifluoromethyl)phenyl)-2,3-dimethyl-2,6-naphthyridin-1 (2H)-one]", "EC50": "≤ 0.05"}, {"smiles": "Cn1ncc2c(-c3ccc(C(F)(F)F)cc3F)nc(C3CCO[C@@H](c4cnn(C5CC5)c4)C3)nc2c1=O", "note": "(stereo partly drawn) [I-84, 2-((2R)-2-(1-cyclopropyl-1H-pyrazol-4-yl)tetrahydro-2H-pyran-4-yl)-4-(2-fluoro-4-(trifluoromethyl)phenyl)-7-methylpyrimido[4,5-d]pyridazin-8 (7H)-one]", "EC50": "0.05 to 0.5"}, {"smiles": "Cc1nc2c(-c3ccc(F)cc3F)nc(N3C[C@@H](C)O[C@@H](c4cnn(C5CC5)c4)C3)nc2c(=O)n1C", "note": "[I-90, 6-((2S,6R)-2-(1-cyclopropyl-1H-pyrazol-4-yl)-6-methylmorpholino)-8-(2,4-difluorophenyl)-2,3-dimethylpyrimido[5,4-d]pyrimidin-4 (3H)-one]", "EC50": "≤ 0.05"}, {"smiles": "Cc1cc2c(-c3ccc(C(F)(F)F)cc3F)nc([C@H]3CCO[C@@H](c4cnn(C5CC5)c4)C3)cc2c(=O)n1C", "note": "[I-95, 7-((2R,4S)-2-(1-cyclopropyl-1H-pyrazol-4-yl)tetrahydro-2H-pyran-4-yl)-5-(2-fluoro-4-(trifluoromethyl)phenyl)-2,3-dimethyl-2,6-naphthyridin-1 (2H)-one]", "EC50": "≤ 0.05"}, {"smiles": "C[C@@H]1CN(c2cc(-c3ccc(Cl)cc3F)c3cnn(C)c(=O)c3n2)C[C@H](c2cnn(C3CC3)c2)O1", "note": "[I-100, 4-(4-chloro-2-fluorophenyl)-2-((2S,6R)-2-(1-cyclopropyl-1H-pyrazol-4-yl)-6-methylmorpholino)-7-methylpyrido[2,3-d]pyridazin-8 (7H)-one]", "EC50": "0.05 to 0.5"}, {"smiles": "Cc1nc2c(-c3ccc(F)cc3F)nc([C@H]3CCO[C@@H](c4cnn(C5CC5)c4)C3)nc2c(=O)n1C", "note": "[I-105, 6-((2R,4S)-2-(1-cyclopropyl-1H-pyrazol-4-yl)tetrahydro-2H-pyran-4-yl)-8-(2,4-difluorophenyl)-2,3-dimethylpyrimido[5,4-d]pyrimidin-4 (3H)-one]", "EC50": "0.05 to 0.5"}, {"smiles": "Cc1nc2c(-c3ccc(F)cc3F)cc(N3C[C@@H](C)O[C@@H](c4cnn(C5CC5)c4)C3)nc2c(=O)n1C", "note": "[I-110, 6-((2S,6R)-2-(1-cyclopropyl-1H-pyrazol-4-yl)-6-methylmorpholino)-8-(2,4-difluorophenyl)-2,3-dimethylpyrido[3,2-d]pyrimidin-4 (3H)-one]", "EC50": "≤ 0.05"}, {"smiles": "O=c1c2nc(C3CCOC(c4cnn(C5CC5)c4)C3)nc(-c3ccc(C(F)(F)F)cc3F)c2cnn1C1CC1", "note": "(centres unmarked) [I-115]", "EC50": "0.5 to 3"}, {"smiles": "Cc1nc2c(-c3ccc(F)cc3F)cc([C@H]3CCO[C@@H](c4cnn(C5CC5)c4)C3)nc2c(=O)n1C", "note": "[I-120, 6-((2R,4S)-2-(1-cyclopropyl-1H-pyrazol-4-yl)tetrahydro-2H-pyran-4-yl)-8-(2,4-difluorophenyl)-2,3-dimethylpyrido[3,2-d]pyrimidin-4 (3H)-one]", "EC50": "0.05 to 0.5"}, {"smiles": "Cc1nc2c(-c3ccc(C(F)(F)F)cc3F)nc([C@@H]3CCO[C@@H](c4cnn(C5CC5)c4)C3)nc2c(=O)n1C", "note": "[I-132, 6-[(2R,4R)-2-(1-cyclopropylpyrazol-4-yl)tetrahydropyran-4-yl]-8-[2-fluoro-4-(trifluoromethyl)phenyl]-2,3-dimethyl-pyrimido[5,4-d]pyrimidin-4-one]", "EC50": "0.05 to 0.5"}, {"smiles": "Cc1nc2c(-c3ccc(C(F)(F)F)cc3F)nc([C@H]3CCO[C@@H](c4cnn(C5CC5)c4)C3)nc2c(=O)n1C", "note": "[I-134, 6-[(2R,4S)-2-(1-cyclopropylpyrazol-4-yl)tetrahydropyran-4-yl]-8-[2-fluoro-4-(trifluoromethyl)phenyl]-2,3-dimethyl-pyrimido[5,4-d]pyrimidin-4-one]", "EC50": "≤ 0.05"}, {"smiles": "Cc1nc2c(-c3ccc(C(F)(F)F)cc3F)nc(N3C[C@@H](C)O[C@@H](c4cnn(C5CC5)c4)C3)nc2c(=O)n1C", "note": "[I-136, 6-[(2S,6R)-2-(1-cyclopropylpyrazol-4-yl)-6-methyl-morpholin-4-yl]-8-[2-fluoro-4-(trifluoromethyl)phenyl]-2,3-dimethyl-pyrimido[5,4-d]pyrimidin-4-one]", "EC50": "≤ 0.05"}, {"smiles": "C[C@@H]1CN(c2nc(-c3ccc(F)cc3F)c3cnn(C)c(=O)c3n2)C[C@H](c2cnn(C3CC3)c2)O1", "note": "[I-141, 2-[(2S, 6R)-2-(1-cyclopropylpyrazol-4-yl)-6-methyl-morpholin-4-yl]-4-(2,4-difluorophenyl)-7-methyl-pyrimido[4,5-d]pyridazin-8-one]", "EC50": "≤ 0.05"}, {"smiles": "Cn1ncc2c(-c3ccc(F)cc3F)nc(C3CCO[C@@H](c4cnn(C5CC5)c4)C3)nc2c1=O", "note": "(stereo partly drawn) [I-146, 2-[(2R)-2-(1-cyclopropylpyrazol-4-yl)tetrahydropyran-4-yl]-4-(2,4-difluorophenyl)-7-methyl-pyrimido[4,5-d]pyridazin-8-one]", "EC50": "0.05 to 0.5"}]}]}
